From PMC9107402 (European Journal of Clinical Pharmacology, 2022)
Where two headings read alike, the source gives them in different places.

How the values were obtained:
[1] = tested on: CYP2C19; assay: clinical; settings: human, in vivo; for Cl/F / Tmax: po
Experimental: This was an open-label clinical trial with fixed sequence design consisting of a total of seven inpatient study days and eight short visits for each participant.
The CYP2C19 perpetrator fluconazole (Fluconazol HEXAL® 200 mg, HEXAL) was given for 5 days in oral doses of 400 mg on day 1 and 200 mg on days 2 to 5. […] A diary was used to ensure correct intake of fluconazole and rifampicin at home.
(§1) Blood samples were centrifuged for 10 min at 2500 g and 4 °C, and separated plasma was distributed into 4 aliquots, each stored at − 20 °C until analysis.
The statistical analysis was performed using Prism 8.4 (GraphPad Software Inc., La Jolla, CA, USA).

[2] = tested on: CYP2C19; settings: cited from earlier work
[3] = alteration of gastric pH; cited from earlier work
[4] = cited from earlier work
[5] = tested on: CYP3A; assay: Calculated metabolic clearance of microdosed midazolam (limited sampling AUC 2-4 h); settings: for midazolam metabolic clearance, % of the baseline value: during fluconazole
Experimental: as §1
Midazolam concentrations in plasma were determined by UPLC-MS/MS.

[6] = tested on: CYP3A4; settings: cited from earlier work

## COc1ccc2[nH]c([S+]([O-])Cc3ncc(C)c(OC)c3C)nc2c1 (stereo not shown) [omeprazole]
[1]
  dose-normalized Cmax: 896 ng/mL
[1]; 100 ug, omeprazole clearance
  clearance: 476 mL/min
[1]; 20 mg
  higher AUC in the poor metabolizer in comparison with the EM group: 6.5 fold
  higher Cmax in the poor metabolizer in comparison with the EM group: threefold
  Cl/F: 388 mL/min
[1]; 100 ug
  Cl/F: 379 mL/min
  Tmax: 21.8 min
[1]; 100 ug, tmax (harmonic mean)
  Tmax: 15 min
[1]; 20 mg, tmax (harmonic mean)
  Tmax: 178 min
[2]; 100 mg fluconazole daily for 5 days, healthy volunteers
  increase of omeprazole AUC: sixfold
[2]; 8 days of 50 mg fluconazole daily
  increase of omeprazole AUC: 2.7–2.8 fold
[2]; rifampicin 150 mg, 8 days, omeprazole microdose
  omeprazole AUC decreased to: 22%
[2]; rifampicin 150 mg, 9 days, 20 mg omeprazole
  omeprazole AUC decreased to: 20%
[2]; rifampicin 6 days, 450 mg daily, 20 mg omeprazole
  omeprazole AUC decreased to: 12.9%
[2]; uncoated omeprazole with 48 mmol sodium bicarbonate
  bioequivalence to an encapsulated formulation: bioequivalent

## Cc1c(O)cccc1C(=O)N[C@@H](CSc1ccccc1)[C@H](O)CN1C[C@H]2CCCC[C@H]2C[C@H]1C(=O)NC(C)(C)C [nelfinavir]
[3]
  reduction of nelfinavir AUC by omeprazole: approximately one third
  reduction of nelfinavir Cmax by omeprazole: approximately one third

## OC(Cn1cncn1)(Cn1cncn1)c1ccc(F)cc1F [fluconazole]
[4]
  effect of changes in gastric pH on fluconazole Cmax, tmax, and AUC: did not affect

## Cc1ncc2n1-c1ccc(Cl)cc1C(c1ccccc1F)=NC2 [midazolam]
[5]; with 100 µg omeprazole
  midazolam metabolic clearance, % of the baseline value: 28%
[5]; with 20 mg omeprazole
  midazolam metabolic clearance, % of the baseline value: 26%
[5]; during rifampicin
  increase of midazolam metabolic clearance: 10–12 fold
[5]; rifampicin day 5
  increase of midazolam metabolic clearance: 10.1 fold
[5]; rifampicin day 7
  increase of midazolam metabolic clearance: 11.9 fold
[6]; 600 mg rifampicin daily over 5 days
  midazolam AUC decrease to % of the baseline value: 4.1%
[6]; oral 7.5 mg midazolam during fluconazole treatment
  increase of midazolam AUC: 3.6 fold
